In brackets after ≈: the same amount, converted by molar mass. Counter-ions that a name gives are not always drawn. Like-named read-outs stand apart in the source and are kept apart here.
Key:
P. falciparum K1 = assay: Malaria whole cell assay, K1 strain; type: cell-based; settings: Plasmodium falciparum
Experimental: (§1) Two strains of P. falcipanum are used in this study: The drug sensitive NF54 (an airport strain of unknown origin) and K1 (Thailand, chloroquine and pyrimethamine resistant). The strains are maintained in RPMI-1640 medium with 0.36 mM hypoxanthine supplemented with 25 mM HEPES, 25 mM NaHCO3, neomycin (100 U/ml) and Albumax® (lipid-rich bovine serum albumin) (GIBCO, Grand Island, N.Y.) (5 g/l), together with 5% washed human A+ erythrocytes. All cultures and assays are conducted at 37° C. under an atmosphere of 4% CO2, 3% O2 and 93% N2. Cultures are kept in incubation chambers filled with the gas mixture. Subcultures are diluted to a parasitaemia of 0.1-0.5% and the medium changed daily.
(§2) Antimalarial activity is assessed using an adaptation of the procedures described by Desjardins et al. (Antimicrob. Agents Chemother. 16(6):710-8, 1979), and Matile and Pink (In: Lefkovits, I. and Pernis, B. (Eds.). Immunological Methods. Academic Press, San Diego, pp. 221-234, 1990).
(§3) After use the stocks are kept at −20° C. The compound is further diluted to the appropriate concentration using complete medium without hypoxanthine. […]
(§4) After 48 hours of incubation at 37° C., 0.5 μCi ^3H-hypoxanthine is added to each well. […] The radioactivity is counted using a Betaplate™ liquid scintillation counter (Wallac, Zurich, Switzerland). […] From the sigmoidal inhibition curves IC50 values are calculated. […]

P. falciparum NF54 = assay: Malaria whole cell assay, NF54 strain; type: cell-based; settings: Plasmodium falciparum
Experimental: as §1, §2, §3, §4

Plasmodium falciparum = assay: Malaria whole cell assay (cell culture); type: cell-based; settings: read-out: ED50 (the source's name)
Experimental: as §1, §2
After use the stocks are kept at −20° C. The compound is further diluted to the appropriate concentration using complete medium without hypoxanthine.
Assays are performed in sterile 96-well microtiter plates, each well containing 200 μl of parasite culture (0.15% parasitemia, 2.5% hematocrit) with or without serial drug solutions. Seven 2-fold dilutions are used covering a range from 5 μg/ml to 0.078 μg/ml.
After 48 hours of incubation at 37° C., 0.5 μCi ^3H-hypoxanthine is added to each well. Cultures are incubated for a further 24 h before they are harvested onto glass-fiber filters and washed with distilled water. The radioactivity is counted using a Betaplate™ liquid scintillation counter (Wallac, Zurich, Switzerland). […] From the sigmoidal inhibition curves IC50 values are calculated.
K1 strain is used. The compounds are tested at 7 concentrations (5000 to 78 ng/ml). Artemisinin and chloroquine are included as reference drugs.

[1] = target: T1, Plasmodium falciparum dUTPase (Plasmodium falciparum, UniProt Q8II92); assay: Malaria enzyme assay: inhibition of Plasmodium falciparum dUTPase; type: biochemical
T1 construct: made in house; host or cells: E. coli BL21 (DE3)
T1 sequence (Q8II92 1-173): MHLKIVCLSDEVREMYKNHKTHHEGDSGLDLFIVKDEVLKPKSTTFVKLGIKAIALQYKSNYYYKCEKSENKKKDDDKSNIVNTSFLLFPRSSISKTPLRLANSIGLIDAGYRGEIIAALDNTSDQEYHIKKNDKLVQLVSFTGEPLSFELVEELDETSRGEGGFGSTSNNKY
Experimental: Inhibition of Plasmodium falciparum dUTPase
2′-dUTP, was purchased from Pharmacia. MgCl2, BSA, and the pH indicator cresol red were from Sigma. The buffer N,N-bis(2-hydroxyethyl)glycine (BICINE) was obtained from USB (United States Biochemical), Ohio. All the concentrations of nucleotides were calculated spectrophotometrically (HP-8453, Hewlett Packard) at 280 nm, using the extinction coefficient (ε280 nm=1.75 ml mg^−1cm^−1). Other chemicals used in these experiments were of the highest quality available.
Recombinant P. falciparum dUTPase was purified from E. coli BL21 (DE3) cells transformed with pET-PFdut. Pellets from a liter of culture were resuspended in a solution consisting of buffer A (20 mM MES pH 5.5, 50 mM NaCl, 1 mM DTT) plus the protease inhibitors 1 mM PMSF, 20 μg/ml leupeptin and 1 mM benzamidine. Purification was carried out in a cold room (4° C.). The soluble crude extract was obtained by sonication in a Vibra-cell (Sonics and Materials Inc. Danbury, Conn., USA) and centrifugation at 14000×g. The extract was loaded onto a phosphocellulose column (Whatman) pre-equilibrated with buffer A at a flow rate of 1 ml/min. After washing the column with 100 ml of buffer A, elution was performed using a linear NaCl gradient of 50 to 1000 mM. Peak fractions with a low concentration of contaminating protein, as judged by 15% SDS-PAGE gels, were pooled and then loaded and chromatographed on a Superdex 200 column at a flow rate of 0.5 ml/min. The column was equilibrated with buffer B (50 mM Bicine, 1 mM DTT, 10 mM MgCl2). Peak fractions were pooled and concentrated to about 5 mg/ml by ultrafiltration in a Centripep tube (Amicon) and stored at −80° C.
Nucleotide hydrolysis was monitored by mixing enzyme and substrate with a rapid kinetic accessory (Hi-Tech Scientific) attached to a spectrophotometer (Cary 50) and connected to a computer for data acquisition and storage. Protons, released through the hydrolysis of nucleotides, were neutralised by a pH indicator in a weak buffered medium with similar pKa and monitored spectrophotometrically at the absorbance peak of the basic form of the indicator. Absorbance changes were kept within 0.1 units. The indicator/buffer pair used was cresol red/BICINE ([…], pH 8, 573 nm). The measurements were performed at 25° C., and the solutions were previously degassed. Assays contained 30 nM purified recombinant enzyme, 50 μM dUTP, 5 mM MgCl2 and 2.5 mM DTT, 1.25 mg/ml BSA and 100 mM KCl. Indicator absorbance changes corresponding to complete hydrolysis of nucleotides were recorded in the computer, and the kinetic parameters Vmax and Kmapp (or slope) were calculated by fitting the data to the integrated Michaelis-Menten equation (Segel, 1975). [dUMP]/t=Vmax−Kmap/t ln [dUTP]([dUTP]−[dUMP])
Solutions of potential inhibitors were prepared at 10 mg/ml and tested routinely at concentrations of […]. A wider range of concentrations was further tested when necessary for Ki determination. The different apparent Km values attained were plotted against inhibitor concentration and Ki values were obtained according to the following equation: […]

[2] = Plasmodium falciparum enzyme, read-out: Ki

melting point	Structure (SMILES)	EC50 (Plasmodium falciparum)	Ki [1, 2]	Ki [1]	also measured
140 to 142 °C	COc1ccc(C(NC[C@H]2O[C@@H](n3ccc(=O)[nH]c3=O)CC2O)(c2ccccc2)c2ccccc2)cc1 (stereo partly shown) (as salt: salt) [Example 23, 5′-paraMethoxytritylamino-2′,5′-dideoxyuridine]	–	–	–	–
131 to 133 °C	O=c1ccn(C2CC(O)C(CNC(c3ccccc3)(c3ccccc3)c3ccncc3)O2)c(=O)[nH]1 (stereo not shown) [Example 8, 5′-(4-pyridydiphenylmethyl)amino-2′,5′-dideoxyuridine]	–	–	–	–
96 to 97 °C	COc1ccc(C(OC[C@H]2O[C@@H](n3ccc(=O)[nH]c3=O)CC2O)(c2ccccc2)c2ccccc2)cc1 (stereo partly shown) [Example 20, 5′-O-paramethoxytrityl-2′-deoxyuridine]	–	–	–	–
160 to 163 °C	N#Cc1ccc(C(NC[C@H]2O[C@@H](n3ccc(=O)[nH]c3=O)C[C@@H]2O)(c2ccccc2)c2ccccc2)cc1 [Example 22, 5′-[(4-cyanotrityl)amino]-2′,5′-dideoxyuridine]	–	–	–	–
129 to 131 °C	O=c1ccn([C@H]2C[C@H](O)[C@@H](CNC(c3ccccc3)(c3ccccc3)c3ccccc3Cl)O2)c(=O)[nH]1 [Example 24, 5′-[(2-chlorotrityl)amino]2′,5′-dideoxyuridine]	–	–	–	–
117 to 119 °C	O=c1ccn(C2CC(O)C(CNC3(c4ccccc4)c4ccccc4Oc4ccccc43)O2)c(=O)[nH]1 (stereo not shown) [Example 26, 5′-Pixylamino-2′,5′-dideoxyuridine]	–	–	–	–
–	C[C@@H]1CC[C@H]2[C@@H](C)C(=O)O[C@@H]3O[C@@]4(C)CC[C@@H]1[C@]32OO4 [artemisinin]	–	–	–	IC50 (P. falciparum K1; K1 strain, read-out: IC50): 0.8 ng/mL (≈ 2.83 nM); IC50 (P. falciparum NF54; NF54 strain, read-out: IC50): 1.9 ng/mL (≈ 6.73 nM)
–	CCN(CC)CCCC(C)Nc1ccnc2cc(Cl)ccc12 (stereo not shown) [chloroquine]	–	–	–	IC50 (P. falciparum K1; K1): 48 ng/mL (≈ 150 nM); IC50 (P. falciparum NF54; NF54): 2.9 ng/mL (≈ 9.07 nM)
–	O=c1ccn([C@H]2C[C@H](O)[C@@H](CNC(c3ccccc3)(c3ccccc3)c3ccccc3)O2)c(=O)[nH]1 [drawing 55 Ph3CNH, 5′-Tritylamino-2′,5′-dideoxyuridine]	4.5 µM	0.2 µM	–	–
–	O=c1ccn([C@H]2C[C@H](O)[C@@H](COC(c3ccccc3)(c3ccccc3)c3ccccc3)O2)c(=O)[nH]1 [drawing 55 Ph3CO, 5′-O-trityl-2′-deoxyuridine]	6 µM	1.8 µM	–	–
–	CC(C)(C)[Si](OC[C@H]1O[C@@H](n2ccc(=O)[nH]c2=O)C[C@@H]1O)(c1ccccc1)c1ccccc1 [drawing 55 TBDPSO, 5′-O-tert-Butyldiphenylsilyl-2′-deoxyuridine]	6.6 µM	4.2 µM	–	–
–	O=c1ccn([C@H]2C[C@H](O)[C@@H](CO[Si](c3ccccc3)(c3ccccc3)c3ccccc3)O2)c(=O)[nH]1 [drawing 55 TPSO, 5′-O-Triphenylsilyl-2′-deoxyuridine]	1.1 µM	2.8 µM	–	–
–	CC(C)(C)[Si](C)(C)OC1CC(n2ccc(=O)[nH]c2=O)OC1COC(c1ccccc1)(c1ccccc1)c1ccccc1 (stereo not shown) [drawing 56 Ph3CO, 1-[4-(tert-Butyl-dimethyl-silanyloxy)-5-trityloxymethyl-tetrahydro-furan-2-yl]-1H pyrimidine-2,4-dione]	1 µM	–	515 µM	–
–	CC(C)(C)[Si](C)(C)OC1C[C@H](n2ccc(=O)[nH]c2=O)O[C@@H]1CNC(c1ccccc1)(c1ccccc1)c1ccccc1 (stereo partly shown) [drawing 56 Ph3NH, 3′-O-tertbutyldimethylsilyl-5′-Tritylamino-2′,5-dideoxyuridine]	1.8 µM	–	313 µM	–
–	CC(C)(C)[Si](OCC1C=CC(n2ccc(=O)[nH]c2=O)O1)(c1ccccc1)c1ccccc1 (stereo not shown) [drawing 57 TBDPSO, 5′-O-tert-butyldiphenylsilyl-2′,3′-dideoxydidehydrouridine]	3 µM	1.2 µM	–	–
–	O=c1ccn([C@H]2C=C[C@@H](CO[Si](c3ccccc3)(c3ccccc3)c3ccccc3)O2)c(=O)[nH]1 [drawing 57 TPSO, 5′-Triphenylsilyloxy-2′,3′-dideoxydidehydrouridine]	1 µM	–	1.3 µM	–
–	O=c1ccn([C@H]2C[C@H](F)[C@@H](COC(c3ccccc3)(c3ccccc3)c3ccccc3)O2)c(=O)[nH]1 [drawing 58 Ph3CO, 3′-Fluoro-5′-O-trityl-2′,3′-dideoxyuridine]	2 µM	5 µM	–	–
–	O=c1ccn([C@H]2C[C@H](F)[C@@H](CNC(c3ccccc3)(c3ccccc3)c3ccccc3)O2)c(=O)[nH]1 [drawing 58 Ph3NH, 3′-Fluoro-5′-tritylamino-2′,3′,5′-trideoxyuridine]	5.3 µM	–	12 µM	–
–	CC(C)(C)[Si](OC[C@H]1O[C@@H](n2ccc(=O)[nH]c2=O)CC1F)(c1ccccc1)c1ccccc1 (stereo partly shown) [drawing 58 TBDPSO, 3′-Fluoro-5′-O-tert-Butyidiphenylsilyl-2′,3′-dideoxyuridine]	8.8 µM	–	89 µM	–
–	O=c1ccn([C@H]2C[C@H](F)[C@@H](CO[Si](c3ccccc3)(c3ccccc3)c3ccccc3)O2)c(=O)[nH]1 [drawing 58 TPSO, 3′-Fluoro-5′-O-triphenylsilyl-2′,3′-dideoxyuridine]	1 µM	–	975 µM	–

Reference: US7601702B2, “Dutpase Inhibitors” (Medivir AB, priority 2004, dated 2009)
